Values of other authors as cited in US20240299430A1, “METHODS AND COMPOSITIONS FOR TREATING LONG COVID-19” (Intrinsic Medicine, Inc., priority 2021, published 2024).

Tests used:
[1] = test system: murine and human derived macrophages stimulated with LPS and various pro-inflammatory cytokines; conditions: in vitro
[2] = test system: PDL1, COX2 and select chemokines, such as CCL2 (MCP1) and CCL5
[3] = test system: mouse models of rheumatoid arthritis; conditions: administered orally, LPS challenge

Row | Molecule | effect on IL-1β, IL-2, IL-4, IL-6, IL-12, IFN γ or TNF-α [1] | extent of cytokine reduction, 3′-SL compared with 6′SL [1] | effect on PDL1, COX2 and chemokines CCL2 (MCP1) and CCL5 [2] | clinical assessments of disease [3]
1 | CC(=O)N[C@H]1C([C@H](O)[C@H](O)CO)O[C@@](O[C@@H]2C(O)[C@H](O[C@@H]3C(CO)O[C@@H](O)C(O)[C@H]3O)OC(CO)[C@@H]2O)(C(=O)O)C[C@H]1O (some centres unmarked) [3′SL, 3′-sialyllactose] | reductions | more significant reductions | reduce | 
2 | CC(=O)N[C@H]1[C@H]([C@H](O)[C@H](O)CO)O[C@@](OC[C@H]2O[C@@H](O[C@H]3[C@H](O)[C@@H](O)[C@H](O)O[C@@H]3CO)[C@H](O)[C@@H](O)[C@H]2O)(C(=O)O)C[C@@H]1O [6′SL, 6′-sialyllactose] | reductions |  |  | 
3 | sialyllactose |  |  |  | benefit in clinical assessments of disease
